Results published in paper PMC6270338, “Diterpenylquinone Hybrids: Synthesis and Assessment of Gastroprotective Mechanisms of Action in Human Cells” (Molecules, 2013).

Tests used:
[1] = test system: human erythrocyte membranes; assay: Inhibition of lipoperoxidation in erythrocyte membranes; format: biochemical
[2] = Cytotoxicity, neutral red uptake assay, MRC-5; format: cell-based; conditions: human, MRC-5 lung fibroblasts, confluent monolayer, confluent MRC-5, 24 h, read-out: IC50 ± SD, cytotoxicity MRC-5
Protocol: (§1) Human lung fibroblasts MRC-5 (ATCC CCL-171) were grown in minimum essential Eagle medium (MEM) with Earles’s salts and 2 mM L-glutamine (Sigma-Aldrich Co.). Human epithelial gastric cells AGS (ATCC CRL-1739) were grown in Ham F-12 medium containing 1 mM L-glutamine. Both media were supplemented with 1.5 g/L sodium bicarbonate (Sigma-Aldrich Co.), 10% heat-inactivated fetal bovine serum (FBS), 100 IU/mL penicillin and 100 µg/mL streptomycin.Both cell lines were grown as monolayers in a humidified incubator with 5% CO2 in air at 37 °C. Culture media, antibiotics and FBS were obtained from Invitrogen Corp.
(§2) Cytotoxicity values were required as a reference to determine the working concentrations in the subsequent experiments. Briefly, confluent cultures of MRC-5 and AGS cells were treated during 24 h with medium containing the compounds at concentrations ranging from 0 up to 1,000 µM. The products were first dissolved in DMSO (1% final concentration) and then in the corresponding culture medium supplemented with 2% FBS. Untreated cells were used as controls. Cell viability was determined at the end of the incubation by means of the neutral red uptake (NRU) assay. Lansoprazole (Sigma-Aldrich Co., min. 98% by TLC) was used as reference compound.

[3] = Cytotoxicity, neutral red uptake assay, AGS; format: cell-based; conditions: human, AGS gastric epithelial cells, confluent monolayer, read-out: IC50 ± SD, cytotoxicity AGS
Protocol: as §1, §2

AGS cells [4] = assay: Cellular reduced glutathione (GSH) content of AGS cells; format: cell-based, human; conditions: 4 h; for GSH: post-confluent AGS, control 13.6 ± 0.7
Protocol: Untreated cells were used as controls. […] After incubation, the GSH content was determined using a colorimetric kit (BioAssays Systems, Hayward, CA, USA). Results are expressed as nanomol of soluble reduced sulfhydryls/10^6 cells.

AGS cells [5] = assay: Prostaglandin E2 (PGE2) content of AGS cells; format: cell-based, human; conditions: 1 h; for PGE2: post-confluent AGS, control 52 ± 5
Protocol: One day after confluence, AGS cells were treated for 1 h with the compounds at 1/2 and 1/4 of the respective IC50 values. A control with medium only was included. Indomethacin (100 μM) was used as standard inhibitor of prostaglandin synthesis (Sigma-Aldrich Co., min. 99% by TLC). After incubation, PGE2 content was determined by means of a specific enzyme immunoassay kit (R & D Systems KGE004B, Minneapolis, MN, USA) and values were calculated according to the manufacturer instructions. Results are expressed as pg/well.

[6] = test system: human erythrocyte membranes; assay: Inhibition of lipoperoxidation in erythrocyte membranes; format: biochemical; conditions: at 100 µg/mL
Protocol: The inhibition of lipid peroxidation was determined using human erythrocyte membranes. The compounds were tested at 100 µg/mL.

AGS cells [7] = assay: Sodium taurocholate (NaT)-induced damage to AGS cells; format: cell-based, human; conditions: 60 min pre-treatment, then 10 mM NaT 30 min
Protocol: The effect of sodium taurocholate (NaT) on cell viability was determined according to [15]. […] Then, 10 mM NaT was added to all wells for 30 min. Untreated cells were used as controls. […] After incubation, the NRU assay was carried out.

For `O.Oc1cc(O)c2c(c1)O[C@H](c1ccc(O)c(O)c1)[C@@H](O)C2` [Catechin, reference compound], the “IC50, inhibition of the lipoperoxidation” value [1] was “IC50 75.4 ± 6.0 µg/mL”.
`CC(C)=CCC1=C(O)C(=O)c2ccccc2C1=O` [Compound 1, Lapachol] gave an IC50 at 24 h [2] of over 1000 µM, an IC50 at 24 h [3] of 571 ± 28 µM and a GSH (AGS cells [4]; 72 µM) of 13.9 ± 0.9 nmol/10^6 cells. For the same molecule, the GSH (AGS cells [4]; 143 µM) was 14.1 ± 0.8 nmol/10^6 cells, the fold induction at 143 µM (AGS cells [5]; Homo sapiens, AGS, 143 µM, read-out: increase in PGE2 content) was 2.3 and the fold induction at 286 µM (AGS cells [5]; Homo sapiens, AGS, 286 µM, read-out: increase in PGE2 content) was 2.5. The PGE2 (AGS cells [5]; 143 µM) was 117 ± 10 pg/mL, the PGE2 (AGS cells [5]; 286 µM) was 132 ± 12 pg/mL and the “% Inhibition of the lipoperoxidation” value [6] was 38%.
With `CC(C)CCC1=C(O)C(=O)c2ccccc2C1=O` [Compound 2, Dihydroprenyl lapachol] the IC50 at 24 h [2] was 611 ± 42 µM, the IC50 at 24 h [3] was 292 ± 12 µM and the GSH (AGS cells [4]; 37 µM) was 13.6 ± 0.7 nmol/10^6 cells. The GSH (AGS cells [4]; 73 µM) was 13.8 ± 0.7 nmol/10^6 cells, the “reduction in cell viability, NaT-induced damage” value (from here on “reduction in cell viability”) (AGS cells [7]; 37 µM) was 23% and the “reduction in cell viability” value (AGS cells [7]; 73 µM) was 23%. The “reduction in cell viability” value (AGS cells [7]; 146 µM) was 27% and the “IC50, inhibition of the lipoperoxidation” value [1] was “IC50 25.4 ± 2.4 µg/mL”.
Work on `CC(C)CCC1=C(O)C(=O)C2=C(CCCC2)C1=O` [Compound 3, Dihydroprenyl-5,6,7,8-tetrahydrolapachol] yielded an IC50 at 24 h [2] of 307 ± 22 µM, an IC50 at 24 h [3] of 87 ± 4 µM and a GSH (AGS cells [4]; 11 µM) of 14.3 ± 0.7 nmol/10^6 cells. The GSH (AGS cells [4]; 22 µM) was 13.0 ± 0.5 nmol/10^6 cells and the “IC50, inhibition of the lipoperoxidation” value [1] was “IC50 33.3 ± 2.3 µg/mL”.
For `C=C1CCC2[C@](C)(CCC[C@]2(C)C(=O)O)[C@H]1CC[C@@H](C)CC(=O)O` (stereo partly shown) [Compound 4, Junicedric acid], the IC50 at 24 h [2] was 439 ± 26 µM, the IC50 at 24 h [3] was 383 ± 23 µM and the GSH (AGS cells [4]; 48 µM) was “* 18.4 ± 1.1 nmol/10^6 cells”. The GSH (AGS cells [4]; 96 µM) was “* 17.2 ± 1.0 nmol/10^6 cells” and the “% Inhibition of the lipoperoxidation” value [6] was 25%.
`CC(CCC1C(C)CCC2C(C)(C(=O)O)CCCC12C)CC(=O)O` (stereo not drawn) [Compound 6, 17β-Dihydrojunicedric acid] gave an IC50 at 24 h [2] of 163 ± 5 µM, an IC50 at 24 h [3] of 283 ± 17 µM and an activation at 37 µM (AGS cells [4]; Homo sapiens, AGS, 37 µM, read-out: increase of GSH content compared to untreated controls) of 43%. For the same molecule, the activation at 71 µM (AGS cells [4]; Homo sapiens, AGS, 71 µM, read-out: increase of GSH content compared to untreated controls) was 60%, the GSH (AGS cells [4]; 37 µM) was “* 19.5 ± 0.9 nmol/10^6 cells” and the GSH (AGS cells [4]; 71 µM) was “** 21.7 ± 1.3 nmol/10^6 cells”. The “% Inhibition of the lipoperoxidation” value [6] was 30%.
Molecule `C=C1CCC2[C@](C)(CCC[C@]2(C)C(=O)O)[C@H]1CC[C@@H](C)CC(=O)OC1=C(CC=C(C)C)C(=O)c2ccccc2C1=O` (stereo partly shown) [Compound 7, Lapachoyl junicedrate] has an IC50 at 24 h [2] of 221 ± 13 µM, an IC50 at 24 h [3] of 143 ± 6 µM and an activation at 18 µM (AGS cells [4]; Homo sapiens, AGS, 18 µM, read-out: increase of GSH content compared to untreated controls) of 18%. For the same molecule, the activation at 36 µM (AGS cells [4]; Homo sapiens, AGS, 36 µM, read-out: increase of GSH content compared to untreated controls) was 23%, the GSH (AGS cells [4]; 18 µM) was 16.1 ± 0.9 nmol/10^6 cells and the GSH (AGS cells [4]; 36 µM) was “* 16.7 ± 0.7 nmol/10^6 cells”. For the same molecule, the “% Inhibition of the lipoperoxidation” value [6] was 10%.
For `C=C1CCC2[C@](C)(CCC[C@]2(C)C(=O)OC)[C@H]1CC[C@@H](C)CC(=O)OC1=C(CCC(C)C)C(=O)C2=C(CCCC2)C1=O` (stereo partly shown) [Compound 12, Dihydroprenyl-5,6,7,8-tetrahydrolapachoyl junicedrate methyl ester], the IC50 at 24 h [2] was 667 ± 40 µM, the IC50 at 24 h [3] was over 1000 µM and the GSH (AGS cells [4]; 125 µM) was 13.7 ± 1.0 nmol/10^6 cells. For the same molecule, the GSH (AGS cells [4]; 250 µM) was 13.9 ± 0.8 nmol/10^6 cells and the “% Inhibition of the lipoperoxidation” value [6] was 37%.
Work on `COC(=O)[C@@]1(C)CCC[C@@]2(C)C1CC[C@H](C)[C@@H]2CC[C@@H](C)CC(=O)OC1=C(CC=C(C)C)C(=O)c2ccccc2C1=O` (stereo partly drawn) [Compound 14, Lapachoyl 17β-dihydrojunicedrate methyl ester] yielded an IC50 at 24 h [2] of 727 ± 48 µM, an IC50 at 24 h [3] of 916 ± 54 µM and a GSH (AGS cells [4]; 115 µM) of 14.4 ± 0.5 nmol/10^6 cells. The GSH (AGS cells [4]; 229 µM) was 12.7 ± 0.4 nmol/10^6 cells and the “IC50, inhibition of the lipoperoxidation” value [1] was “IC50 19.7 ± 1.4 µg/mL”.
Work on `CC(C)CCC1=C(OC(=O)C[C@H](C)CC[C@H]2[C@@H](C)CCC3[C@]2(C)CCC[C@]3(C)C(=O)O)C(=O)c2ccccc2C1=O` (stereo partly drawn) [Compound 15, Dihydroprenyl lapachol 17β-dihydrojunicedrate] yielded an IC50 at 24 h [2] of over 1000 µM, an IC50 at 24 h [3] of over 1000 µM and an activation at 125 µM (AGS cells [4]; Homo sapiens, AGS, 125 µM, read-out: increase of GSH content compared to untreated controls) of 31%. The activation at 250 µM (AGS cells [4]; Homo sapiens, AGS, 250 µM, read-out: increase of GSH content compared to untreated controls) was 35%, the GSH (AGS cells [4]; 125 µM) was “* 17.8 ± 0.9 nmol/10^6 cells” and the GSH (AGS cells [4]; 250 µM) was “* 18.4 ± 1.2 nmol/10^6 cells”. For the same molecule, the fold induction at 250 µM (AGS cells [5]; Homo sapiens, AGS, 250 µM, read-out: increase in PGE2 content) was 5.4, the fold induction at 500 µM (AGS cells [5]; Homo sapiens, AGS, 500 µM, read-out: increase in PGE2 content) was 7.2 and the PGE2 (AGS cells [5]; 250 µM) was 279 ± 20 pg/mL. For the same molecule, the PGE2 (AGS cells [5]; 500 µM) was 372 ± 25 pg/mL, the “reduction in cell viability” value (AGS cells [7]; 125 µM) was 27% and the “reduction in cell viability” value (AGS cells [7]; 250 µM) was 27%. For the same molecule, the “reduction in cell viability” value (AGS cells [7]; 500 µM) was 21% and the “IC50, inhibition of the lipoperoxidation” value [1] was “IC50 25.3 ± 4.1 µg/mL”.
For `CC(C)=CCC1=C(OC(=O)C[C@H](C)CC[C@H]2[C@@H](C)CCC3[C@]2(C)CCC[C@]3(C)C(=O)O)C(=O)C2=C(CCCC2)C1=O` (stereo partly drawn) [Compound 17, Dihydroprenyl-5,6,7,8-tetrahydrolapachoyl 17β-dihydrojunicedrate], the IC50 at 24 h [2] was 44 ± 4 µM, the IC50 at 24 h [3] was 60 ± 5 µM and the activation at 7.5 µM (AGS cells [4]; Homo sapiens, AGS, 7.5 µM, read-out: increase of GSH content compared to untreated controls) was 89%. For the same molecule, the activation at 15 µM (AGS cells [4]; Homo sapiens, AGS, 15 µM, read-out: increase of GSH content compared to untreated controls) was 51%, the GSH (AGS cells [4]; 7.5 µM) was “** 25.8 ± 1.6 nmol/10^6 cells” and the GSH (AGS cells [4]; 15 µM) was “** 20.5 ± 1.0 nmol/10^6 cells”. The “% Inhibition of the lipoperoxidation” value [6] was 48%.
With `COc1ccc2c(c1)c(CC(=O)O)c(C)n2C(=O)c1ccc(Cl)cc1` [Indomethacin, reference compound] the PGE2 (AGS cells [5]; 100 µM) was “Not detected”.
For `Cc1c(OCC(F)(F)F)ccnc1C[S+]([O-])c1nc2ccccc2[nH]1` (stereo not shown) [Lansoprazole, reference compound], the IC50 at 24 h [2] was 316 ± 11 µM and the IC50 at 24 h [3] was 168 ± 8 µM.
With `CC(=O)N[C@@H](CS)C(=O)O` [NAC, N-acetyl-L-cysteine, reference compound] the activation at 750 µM (AGS cells [4]; Homo sapiens, AGS, 750 µM, read-out: increase of GSH content compared to untreated controls) was 30% and the GSH (AGS cells [4]; 750 µM) was “* 17.7 ± 1.4 nmol/10^6 cells”.
With Sucralfate [reference compound] the “reduction in cell viability” value (AGS cells [7]; 4 mg/mL (580 µM)) was 35%.
